The values below come from patent publication US12251387B2, “Substituted quinoxalines and benzo[c][1,2,5]oxadiazoles as DNA-PK inhibitors” (Vertex Pharmaceuticals Incorporated, priority 2013, dated 2025).

Usually Ki stands for the dissociation constant of the complex between target and ligand, obtained from inhibition or displacement.

Molecules are shown by their SMILES. Where only a bound is given, the exact number is not on record here.

The target in one test is DNA-PK (Homo sapiens, UniProt P78527). Description: DNA-PK Inhibition Assay (standard radiometric kinase assay, 33P-ATP, peptide substrate). In kind it is biochemical.
Conditions: not given
Put shortly: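 Radiometric transfer of 33P from ATP (100 μM) to peptide substrate (0.8 mg/mL) by about 6 nM DNA-PK with 10 μg/mL sheared dsDNA, pH 7.5 HEPES/MgCl2, 45 min, phosphoric acid quench, filter capture and scintillation counting. Ki fitted to a competitive tight-binding inhibition model.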
In turn, `ClCCN1CCC(c2cnc(N[C@H]3CC[C@@H](Oc4cc(N5CCOCC5)cc5nccnc45)CC3)nc2)CC1` [Compound 522] came in with a Ki of under 100 nM.

Still in this test, the particulars now being: radiometric assay, approximately 6 nM DNA-PK, 100 μM ATP, 45 min; fit to competitive tight-binding inhibition; read-out: Ki for the inhibition of DNA-PK.
Regarding `c1cnc2c(O[C@H]3CC[C@@H](Nc4ncc(OCCN5CCCCC5)cn4)CC3)cc(N3CCOCC3)cc2n1` [Compound 613], the Ki is under 100 nM.

As to `Cc1cncc(N[C@H]2CC[C@@H](Oc3cc(N4CCOCC4)cc4nccnc34)CC2)c1` [Compound 465], the Ki is under 100 nM.

On to `c1nc(N[C@H]2CC[C@@H](Oc3cc(N4CCOCC4)cc4nccnc34)CC2)cc(-c2nnco2)n1` [Compound 566], for which the Ki was under 100 nM.

With `CN1CCN(Cc2cnc(N[C@H]3CC[C@@H](Oc4cc(N5CCOCC5)cc5nccnc45)CC3)nc2)CC1` [Compound 497], the Ki was under 100 nM.

On to `Clc1cncnc1N[C@H]1CC[C@@H](Oc2cc(N3CCOCC3)cc3nccnc23)CC1` [Compound 409], for which the Ki was under 100 nM.

`c1cnc2c(O[C@H]3CC[C@@H](Nc4ccnc5[nH]ccc45)CC3)cc(N3CCOCC3)cc2n1` [Compound 385]: the Ki was under 100 nM.

For `FC(F)(F)c1cc(N[C@H]2CC[C@@H](Oc3cc(N4CCOCC4)cc4nccnc34)CC2)ncn1` [Compound 417], the inhibition constant (Ki) was under 100 nM.

Turning to `Cc1ncc(N)c(N[C@H]2CC[C@@H](Oc3cc(N4CCOCC4)cc4nccnc34)CC2)n1` [Compound 369], the Ki is under 100 nM.

For `CNc1ncc(OC)c(N[C@H]2CC[C@@H](Oc3cc(N4CCOCC4)cc4nccnc34)CC2)n1` [Compound 387], the Ki is under 100 nM.

Take `Cc1cc(N[C@H]2CC[C@@H](Oc3cc(N4CCOCC4)cc4nccnc34)CC2)nn1C` [Compound 326]: the Ki was under 100 nM.

On to `COc1cc(N[C@H]2CC[C@@H](Oc3cc(N4CCOCC4)cc4nccnc34)CC2)nc(N(C)C)n1` [Compound 553], for which the inhibition constant Ki is under 100 nM.

For the compound `c1cc(CN2CCCCC2)nc(N[C@H]2CC[C@@H](Oc3cc(N4CCOCC4)cc4nccnc34)CC2)n1` [Compound 504], the inhibition constant (Ki) was under 100 nM.

Regarding `COCc1cc(N[C@H]2CC[C@@H](Oc3cc(N4CC5CC(C4)O5)cc4nccnc34)CC2)nc(C)n1` [Compound 309], the Ki is under 100 nM.

In the case of `NC1(c2ccc(N[C@H]3CC[C@@H](Oc4cc(N5CCOCC5)cc5nccnc45)CC3)cn2)CC1` [Compound 466], the Ki is under 100 nM.

Take `CCc1nccc(N[C@H]2CC[C@@H](Oc3cc(N4CCOCC4)cc4nccnc34)CC2)n1` [Compound 439]: the Ki is under 100 nM.

Turning to `COc1cccc(N[C@H]2CC[C@@H](Oc3cc(N4CCOCC4)cc4nccnc34)CC2)c1` [Compound 408], the Ki is under 100 nM.

Turning to `c1cc(N[C@H]2CC[C@@H](Oc3cc(N4CCOCC4)cc4nccnc34)CC2)nc(OCCN2CCCCC2)n1` [Compound 493], the Ki is under 100 nM.

For `Cc1ncc(N[C@H]2CC[C@@H](Oc3cc(N4CCOCC4)cc4nccnc34)CC2)nc1C` [Compound 314], the inhibition constant Ki is under 100 nM.

In the case of `CN1CCN(C(=O)N[C@H]2CC[C@@H](Oc3cc(N4CCOCC4)cc4nccnc34)CC2)CC1` [Compound 414], the Ki is under 100 nM.

Take `c1cnc(O[C@H]2CC[C@H](Oc3cc(N4CCOCC4)cc4nccnc34)CC2)nc1` [Compound 34, 4-(8-(((trans)-4-(pyrimidin-2-yloxy)cyclohexyl)oxy)quinoxalin-6-yl)morpholine]: the Ki is under 100 nM.

Take `OC1CCN(c2cc(N[C@H]3CC[C@@H](Oc4cc(N5CCOCC5)cc5nccnc45)CC3)ncn2)CC1` [Compound 492]: the Ki was under 100 nM.

With `CC(C)(C)OC(=O)N1CCC(c2cnc(N[C@H]3CC[C@@H](Oc4cc(N5CCOCC5)cc5nccnc45)CC3)nc2)C1` (stereo partly shown) [Compound 570], the Ki was under 100 nM.

With `c1nc(CN2CCCCC2)cc(N[C@H]2CC[C@@H](Oc3cc(N4CCOCC4)cc4nccnc34)CC2)n1` [Compound 389], the inhibition constant Ki is under 100 nM.

`Cc1nc2c(c(N[C@H]3CC[C@@H](Oc4cc(N5CCOCC5)cc5nccnc45)CC3)n1)COC2` [Compound 452]: the Ki was under 100 nM.

As for `COc1c(Cl)ncnc1N[C@H]1CC[C@@H](Oc2cc(N3CCOCC3)cc3nccnc23)CC1` [Compound 402], the inhibitory constant (Ki) is under 100 nM.

For `c1cc(CN2CCOCC2)nc(N[C@H]2CC[C@@H](Oc3cc(N4CCOCC4)cc4nccnc34)CC2)n1` [Compound 505], the Ki was under 100 nM.

On to `Cc1ccnc(N[C@H]2CC[C@@H](Oc3cc(N4CCOCC4)cc4nccnc34)CC2)c1` [Compound 283], for which the Ki was under 100 nM.

With `c1cnc2c(O[C@H]3CC[C@@H](Nc4ncc(-c5nnn[nH]5)cn4)CC3)cc(N3CCOCC3)cc2n1` [Compound 460], the Ki is under 100 nM.

Regarding `Fc1cc(N[C@H]2CC[C@@H](Oc3cc(N4CCOCC4)cc4nccnc34)CC2)ccn1` [Compound 642], the Ki was under 100 nM.

Turning to `NC(=O)c1cnc2cc(N3CCOCC3)cc(O[C@H]3CC[C@@H](Nc4ncccn4)CC3)c2n1` [Compound 606], the Ki was under 100 nM.

`COc1nccnc1N[C@H]1CC[C@@H](Oc2cc(N3CCOCC3)cc3nccnc23)CC1` [Compound 312]: the Ki is under 100 nM.

For the compound `CC(C)c1ccnc(N[C@H]2CC[C@@H](Oc3cc(N4CCOCC4)cc4nccnc34)CC2)n1` [Compound 634], the Ki was under 100 nM.

Turning to `Cn1cnc2c(N[C@H]3CC[C@@H](Oc4cc(N5CCOCC5)cc5nccnc45)CC3)ncnc21` [Compound 546], the Ki was under 100 nM.

`c1cc(C2CC2)nc(N[C@H]2CC[C@@H](Oc3cc(N4CCOCC4)cc4nccnc34)CC2)n1` [Compound 455]: the Ki was under 100 nM.

Turning to `CN1CCN(Cc2nccc(N[C@H]3CC[C@@H](Oc4cc(N5CCOCC5)cc5nccnc45)CC3)n2)CC1` [Compound 484], the Ki was under 100 nM.

Consider `CCOc1nccc(N[C@H]2CC[C@@H](Oc3cc(N4CCOCC4)cc4nccnc34)CC2)n1` [Compound 279], for which the Ki was under 100 nM.

In the case of `CNc1nccc(N[C@H]2CC[C@@H](Oc3cc(N4CCOCC4)cc4nccnc34)CC2)n1` [Compound 454], the Ki was under 100 nM.

As to `CNC(=O)c1cc(N[C@H]2CC[C@@H](Oc3cc(N4CCOCC4)cc4nccnc34)CC2)ccc1F` [Compound 405], the inhibition constant (Ki) was under 100 nM.

For the compound `OCCN1CCN(c2cc(N[C@H]3CC[C@@H](Oc4cc(N5CCOCC5)cc5nccnc45)CC3)ncn2)CC1` [Compound 499], the Ki was under 100 nM.

On to `Cc1nccc(N[C@H]2CC[C@@H](Oc3cc(C4=COCC4)cc4nccnc34)CC2)n1` [Compound 288], for which the Ki was under 100 nM.

As for `COc1ncccc1N[C@H]1CC[C@@H](Oc2cc(N3CCOCC3)cc3nccnc23)CC1` [Compound 445], the Ki is under 100 nM.

As for `Clc1nc(N[C@H]2CC[C@@H](Oc3cc(N4CCOCC4)cc4nccnc34)CC2)c2[nH]ccc2n1` [Compound 513], the Ki was under 100 nM.

On to `Nc1nccc(N[C@H]2CC[C@@H](Oc3cc(N4CCOCC4)cc4nccnc34)CC2)n1` [Compound 397], for which the Ki was under 100 nM.

With `CN1CCC(NC(=O)N[C@H]2CC[C@@H](Oc3cc(N4CCOCC4)cc4nccnc34)CC2)CC1` [Compound 363], the Ki was under 100 nM.

Consider `c1cnc2c(O[C@H]3C[C@@H](Nc4ncc5c(n4)COC5)C3)cc(N3CCOCC3)cc2n1` [Compound 355], for which the Ki is under 100 nM.

With `c1cc(N[C@H]2CC[C@@H](Oc3cc(N4CCOCC4)cc4nccnc34)CC2)nc(N2CCOCC2)n1` [Compound 534], the Ki is under 100 nM.

Consider `c1cc2c(c(N[C@H]3CC[C@@H](Oc4cc(N5CCOCC5)cc5nccnc45)CC3)c1)OCC2` [Compound 338], for which the inhibition constant (Ki) was under 100 nM.

Take `Cn1nnc(-c2cnc(N[C@H]3CC[C@@H](Oc4cc(N5CCOCC5)cc5nccnc45)CC3)nc2)n1` [Compound 458]: the Ki is under 100 nM.

`Cc1cnc(C)c(N[C@H]2CC[C@@H](Oc3cc(N4CCOCC4)cc4nccnc34)CC2)n1` [Compound 333]: the inhibitory constant (Ki) was under 100 nM.

In the case of `CCc1ccnc(N[C@H]2CC[C@@H](Oc3cc(N4CCOCC4)cc4nccnc34)CC2)n1` [Compound 633], the inhibitory constant (Ki) was under 100 nM.

In the case of `COc1ncc(F)c(N[C@H]2CC[C@@H](Oc3cc(N4CCOCC4)cc4nccnc34)CC2)n1` [Compound 396], the Ki is under 100 nM.

Regarding `Cc1cnc(N[C@H]2CC[C@@H](Oc3cc(N4CCOCC4)cc4nccnc34)CC2)cn1` [Compound 282], the Ki was under 100 nM.

On to `c1cc(N[C@H]2CC[C@@H](Oc3cc(N4CCOCC4)cc4nccnc34)CC2)nc(CN2CCOCC2)n1` [Compound 503], for which the Ki is under 100 nM.

For `Cc1noc(-c2ccc(N[C@H]3CC[C@@H](Oc4cc(N5CCOCC5)cc5nccnc45)CC3)nc2)n1` [Compound 278], the Ki was under 100 nM.

As to `c1cnc2c(O[C@H]3CC[C@@H](Nc4ncnc5occc45)CC3)cc(N3CCOCC3)cc2n1` [Compound 518], the Ki was under 100 nM.

With `Cc1nccc(N[C@H]2CC[C@@H](Oc3cc(N4CCOCC4)cc4nonc34)CC2)n1` [Compound 316], the Ki is under 100 nM.

With `CN(C)CCc1cnc(N[C@H]2CC[C@@H](Oc3cc(N4CCOCC4)cc4nccnc34)CC2)nc1` [Compound 431], the Ki is under 100 nM.

Consider `COC(=O)c1ccc(N[C@H]2CC[C@@H](Oc3cc(N4CCOCC4)cc4nccnc34)CC2)cc1OC` [Compound 394], for which the Ki was under 100 nM.

`COc1ncc(N[C@H]2CC[C@@H](Oc3cc(N4CCOCC4)cc4nccnc34)CC2)cn1` [Compound 574]: the Ki is under 100 nM.

Turning to `CN1Cc2c(N[C@H]3CC[C@@H](Oc4cc(N5CCOCC5)cc5nccnc45)CC3)cccc2C1=O` [Compound 340], the Ki was under 100 nM.

In the case of `Fc1c(N[C@H]2CC[C@@H](Oc3cc(N4CCOCC4)cc4nccnc34)CC2)ncnc1C1CC1` [Compound 456], the Ki was under 100 nM.

In the case of `c1cnc2c(O[C@H]3CC[C@@H](Nc4cc5[nH]ccc5cn4)CC3)cc(N3CCOCC3)cc2n1` [Compound 540], the Ki was under 100 nM.

For `c1cnc2c(O[C@H]3CC[C@@H](Nc4cc5ncnn5cn4)CC3)cc(N3CCOCC3)cc2n1` [Compound 510], the Ki is under 100 nM.
